Measured values published in patent US20250270170A1, “2,3-DIMETHOXY-5-METHYL-1,4-BENZOQUINONE ALKYL ALCOHOL DERIVATIVE AND USE THEREOF” (BEIJING ANJIANXI BIO-MEDICAL TECHNOLOGY CO., LTD., priority 2021, published 2025).
Marks after values point to notes of the source that are not given here.

How the values were obtained:
[1] = system: human gastric cancer NCI-N87 transplanted tumor; test: Example 7: tumor growth in NCI-N87 transplanted tumor model, alone and combined with DDP; format: in vivo, nude mice; settings: DDP 4/2/1/4 mg/kg IP
[2] = Example 9: serum urea nitrogen (BUN) at the end of the assay; format: in vivo, nude mice; settings: serum, end of assay, A549 model
Procedure: On the last day of the assay, CO2 inhalation anesthesia was used on the animals 1 hour after the administration (R01). Blood was collected through the heart, and a part of the whole blood was added with EDTA-K2 for anticoagulation. The plasma was separated by centrifugation at 4° C. and 1500 g for 10 minutes. The plasma was collected, and stored in a −40° C. to −20° C. freezer (if necessary, it can be used for the determination of the plasma drug concentration). No anticoagulant was added to the other part of the whole blood, and the serum was separated by centrifugation after the blood coagulated, which was used for the detection of blood urea nitrogen. After the blood collection, the tumor tissue was collected, weighed and photographed. Then, the tumor was divided into two parts, quickly cryopreserved by liquid nitrogen, and transferred to a −90° C. to −60° C. freezer for storage. Bilateral kidneys were collected and fixed in 10% formalin.

[3] = system: human gastric cancer NCI-N87 transplanted tumor; test: Example 3: tumor growth in NCI-N87 transplanted tumor model in nude mice; format: in vivo, BALB/c nude mice; settings: DDP 4/4/5/5 mg/kg i.p. QW×4
Procedure: Female BALB/c nude mice (age: 6 to 7 weeks) were purchased from Beijing Vital River Laboratory Animal Technology Co., Ltd. The mice were raised in an SPF animal room at a temperature of 20 to 25° C., a relative humidity of 40% to 70%, and a cycle of 12 hours of light and 12 hours of dark. The animals had free access to water and food. After about 1 week of normal feeding, mice with good physical condition after the veterinary examination were selected for this assay. Before grouping, a marker was used to mark on the base of the animals' tail. After grouping, each animal was marked with an ear cutout.
The solution was prepared before each administration. An appropriate amount of DDP was weighed and put into a glass bottle. Then, an appropriate volume of physiological saline was added to the bottle, and vortexed (may be heated in a water bath to 50 to 60° C.) to completely dissolve the drug.
An appropriate amount of the compound was weighed and added to an appropriate volume of dimethylacetamide (DMA). The mixture was vortexed to prepare a stock solution (8 mg·mL^−1). The stock solution was prepared once a week, divided into packages and then stored in a 2 to 8° C. refrigerator. One tube was taken out before each administration, and an appropriate volume of 30% Solutol and PEG400 was added while vortexing. The mixture was vortexed and mixed well. Then, an appropriate volume of physiological saline was added, and mixed well to give an administration formulation with a concentration of 0.4 mg·mL^−1, in which the volume ratio of DMA: 30% Solutol: PEG 400: physiological saline was 5:20:20:55.
Human gastric cancer cells NCI-N87 were obtained from the Cell Bank of the Type Culture Collection Committee of Chinese Academy of Sciences (cryopreserved in liquid nitrogen in the laboratory).
NCI-N87 cells were routinely cultured in a RPMI-1640 culture medium containing 10% fetal bovine serum under culture conditions of 37° C. and 5% CO2. The cells were digested with 0.25% trypsin, and passaged according to the cell growth conditions with a passaging ratio of 1:3 to 1:5.
The NCI-N87 cells in the logarithmic growth phase were collected, counted and resuspended in a serum-free RPMI-1640 medium, and the cell concentration was adjusted to 5×10^7 cells/mL. The cells were pipetted with a pipette to disperse them evenly, and the cells were put into a 50-mL centrifuge tube, which was placed in an ice box. A 1-mL syringe was used to draw the cell suspension, which was injected subcutaneously into the axilla of the front right limb of a nude mouse. Each animal was inoculated with 100 μL (5×10^6 cells/mouse) to establish an NCI-N87 transplanted tumor model in nude mice. After the inoculation, the animal status and tumor growth were regularly observed, and the tumor diameter was measured using an electronic vernier caliper. The data were input into an Excel spreadsheet to calculate the tumor volume. When the tumor volume reached 100 to 300 mm^3, 72 animals in good health and with similar tumor volumes were selected and divided into 9 groups (n=8) using randomized block method. The day of grouping was regarded as the first day of the assay (D1). After the start of the assay, the tumor diameter was measured twice a week, the tumor volume was calculated, and the animal body weight was also weighed and recorded.
The calculation formula of tumor volume (TV) is as follows: […]
wherein l represents the long diameter of a tumor (mm); and w represents the short diameter of a tumor (mm).
On the last day of the assay (D44), the animals were anesthetized using CO2 inhalation 1 hour after administration (R01) and sacrificed, and tumor tissues were collected, weighed, and photographed.
The calculation formula of tumor growth inhibition rate TGI (%) is: […]

## N.N.[Cl][Pt][Cl] [DDP, cisplatin]
[1]; D12
  Mean tumor volume: 155 ± 6 mm^3
[1]; D16
  Mean tumor volume: 241 ± 6 mm^3
  tumor growth inhibition rate (TGI): 15%
[1]; D19
  Mean tumor volume: 294 ± 6* mm^3
  tumor growth inhibition rate (TGI): 18%
[1]; D23
  Mean tumor volume: 341 ± 13** mm^3
  tumor growth inhibition rate (TGI): 28%
[1]; D26
  Mean tumor volume: 419 ± 22** mm^3
  tumor growth inhibition rate (TGI): 34%
[1]; D30
  Mean tumor volume: 543 ± 32** mm^3
  tumor growth inhibition rate (TGI): 40%
[1]; D33
  Mean tumor volume: 642 ± 35** mm^3
  tumor growth inhibition rate (TGI): 39%
[1]; D37
  Mean tumor volume: 810 ± 61* mm^3
  tumor growth inhibition rate (TGI): 36%
[1]; D40
  Mean tumor volume: 911 ± 80* mm^3
  tumor growth inhibition rate (TGI): 36%
[1]; D44
  Mean tumor volume: 1035 ± 95* mm^3
  tumor growth inhibition rate (TGI): 35%
[2]; group B, DDP 4 mg/kg i.p. QW × 4
  BUN (mmol/L) Mean ± SE: 21.17 ± 1.43 mmol/L
[2]; group C, DDP 5/7/7/7 mg/kg i.p. QW × 4
  BUN (mmol/L) Mean ± SE: 28.56 ± 1.79 mmol/L
[3]; D13
  Mean tumor volume: 141 ± 9 mm^3
[3]; D16
  Mean tumor volume: 194 ± 18 mm^3
  tumor growth inhibition rate: (36%)
[3]; D20
  Mean tumor volume: 245 ± 22 mm^3
  tumor growth inhibition rate: (37%)
[3]; D23
  Mean tumor volume: 276 ± 28* mm^3
  tumor growth inhibition rate: (43%)
[3]; D27
  Mean tumor volume: 351 ± 22** mm^3
  tumor growth inhibition rate: (46%)
[3]; D30
  Mean tumor volume: 413 ± 27** mm^3
  tumor growth inhibition rate: (51%)
[3]; D34
  Mean tumor volume: 492 ± 33** mm^3
  tumor growth inhibition rate: (54%)
[3]; D37
  Mean tumor volume: 580 ± 47** mm^3
  tumor growth inhibition rate: (55%)
[3]; D44
  Mean tumor volume: 684 ± 45** mm^3
  tumor growth inhibition rate: (56%)
